Format: in vivo
Details: rat brain, 500 μM dopamine alone, no contrast agent, data not shown

NCCc1ccc(O)c(O)c1 [dopamine]
MRI signal changes on infusion alone: no noticeable signal changes

From article PMC3073400 (Nature biotechnology, 2010)
